# Source: ChEMBL document CHEMBL3877304, “Peptide-Boronic Acid Inhibitors of Flaviviral Proteases: Medicinal Chemistry and Structural Biology” (J Med Chem, 2017)
# pEC50, pIC50, pKi: −log10 of the molar value. Where a SMILES comes first, the peptide text is derived from it. [ ]: non-standard residue; d: D form. The star is where a group is joined. Phe(4-guanidino) = N=C(N)Nc1ccc(C[C@H](N)C(=O)O)cc1; Phe(4-CH2NH2) = NCc1ccc(C[C@H](N)C(=O)O)cc1; Phe(4-NH2) = Nc1ccc(C[C@H](N)C(=O)O)cc1; Bz = O=C(c1ccccc1)*
# Experiments:
# West Nile virus [1] = experiment: Inhibition of West Nile virus His-tagged NS2B-NS3 protease expressed in Escherichia coli BL21(DE3) at 50 uM using Abz-Gly-Leu-Lys-Arg-Gly-Gly-3-(NO2)Tyr as substrate preincubated for 15 mins followed by substrate addition measured for 15 mins by fluorescence assay relative to control
# dengue virus type 2 [2] = experiment: Inhibition of Dengue virus serotype 2 His-tagged NS2B-NS3 protease expressed in Escherichia coli BL21(DE3) at 50 uM using Abz-Nle-Lys-Arg-Arg-Ser-3-(NO2)Tyr as substrate preincubated for 15 mins followed by substrate addition measured for 15 mins by fluorescence assay relative to control
# [3] = Inhibition of Dengue virus serotype 2 His-tagged NS2B-NS3 protease using Abz-Nle-Lys-Arg-Arg-Ser-3-(NO2)Tyr as substrate preincubated for 15 mins followed by substrate addition measured for 15 mins by fluorescence assay; design: species or system dengue virus type 2
# [4] = Inhibition of West Nile virus His-tagged NS2B-NS3 protease expressed in Escherichia coli BL21(DE3) using Abz-Gly-Leu-Lys-Arg-Gly-Gly-3-(NO2)Tyr as substrate preincubated for 15 mins followed by substrate addition measured for 15 mins by fluorescence assay
# dengue virus type 2 [5] = experiment: Antiviral activity against Dengue virus serotype 2 infected in African green monkey Vero E6 cells assessed as virus yield reduction after 7 days by crystal violet staining based plaque assay; assay type: functional, cell-based; details: 168 h
# [6] = Inhibition of Zika virus N-terminal His-tagged NS2B-NS3 protease expressed in Escherichia coli BL21 GOLD(DE3) using Bz-Nle-Lys-Lys-Arg-AMC as substrate preincubated for 10 mins followed by substrate addition by fluorophotometric method
# [7] = Cytotoxicity against human HuH7 cells assessed as reduction in cell viability after 48 hrs by CellTiter-Glo assay; assay type: toxicity, cell-based, Huh-7
# West Nile virus [8] = experiment: Antiviral activity against West Nile virus infected in African green monkey Vero E6 cells assessed as virus yield reduction after 3 days by crystal violet staining based plaque assay; assay type: functional, cell-based; details: 72 h
# West Nile virus [9] = experiment: Antiviral activity against West Nile virus infected in African green monkey Vero E6 cells assessed as virus yield reduction at 50 uM after 3 days by crystal violet staining based plaque assay relative to control; assay type: functional; design: scale not given: the % may be the effect or the level left
# dengue virus type 2 [10] = experiment: Antiviral activity against Dengue virus serotype 2 infected in African green monkey Vero E6 cells assessed as virus yield reduction at 50 uM after 7 days by crystal violet staining based plaque assay relative to control; assay type: functional; design: scale not given: the % may be the effect or the level left
# dengue virus type 2 [11] = experiment: Antiviral activity against Dengue virus serotype 2 infected in African green monkey Vero E6 cells assessed as virus yield reduction at 3.1 uM after 7 days by crystal violet staining based plaque assay relative to control; assay type: functional; design: scale not given: the % may be the effect or the level left
SMILES,inhibition (West Nile virus [1]),inhibition (dengue virus type 2 [2]),pIC50 [3],pIC50 [4],pIC50 [6],pKi [3],pKi [4],CC50 at 48 h [7],Activity (West Nile virus [9]),other results
N=C(N)NCCC[C@H](NC(=O)[C@H](Cc1ccc(CN)cc1)NC(=O)c1ccccc1)C(N)=O (Bz-[Phe(4-CH2NH2)]-Arg-NH2),20%,6.6%,,,,,,,,
N=C(N)NCCC[C@H](NC(=O)[C@H](Cc1ccc(CN)cc1)NC(=O)c1ccccc1)B(O)O,,,7.18,6.96,6.60,7.29,7.09,> 100 µM,,pEC50 (dengue virus type 2 [5]): 4.52; pKi [6]: 7.40; pEC50 (West Nile virus [8]): 4.42
N=C(N)NCCC[C@H](NC(=O)[C@H](Cc1ccc(NC(=N)N)cc1)NC(=O)c1ccccc1)B(O)O,,,7.44,7.15,6.08,7.57,7.19,> 100 µM,,pEC50 (dengue virus type 2 [5]): 4.74; pEC50 (West Nile virus [8]): 4.60
CC(C)(C)c1ccc(C(=O)N[C@@H](Cc2ccc(NC(=N)N)cc2)C(=O)N[C@@H](CCCNC(=N)N)B(O)O)cc1,,,6.96,6.68,5.68,7.11,6.80,> 100 µM,30%,pEC50 (dengue virus type 2 [5]): 4.72
CC(C)(C)c1ccc(C(=O)N[C@@H](Cc2ccc(NC(=N)N)cc2)C(=O)N[C@@H](CCCNC(=N)N)C(N)=O)cc1,34%,,3.84,,,,,,,
N=C(N)NCCC[C@H](NC(=O)[C@H](Cc1ccc(N)cc1)NC(=O)c1ccccc1)C(N)=O (Bz-[Phe(4-NH2)]-Arg-NH2),13%,5.2%,,,,,,,,
NCCC[C@H](NC(=O)c1ccccc1)C(N)=O,18%,2%,,,,,,,,
NCCC[C@H](NC(=O)c1ccccc1)B(O)O,30%,8.3%,,,< 4.30,,,> 100 µM,33%,Activity (dengue virus type 2 [10]): 7.5%
N=C(N)NCCC[C@H](NC(=O)[C@H](Cc1ccc(NC(=N)N)cc1)NC(=O)c1ccccc1)C(N)=O (Bz-[Phe(4-guanidino)]-Arg-NH2),34%,,4.06,,,4.54,,,,
N=C(N)NCCC[C@H](NC(=O)[C@H](Cc1ccc(N)cc1)NC(=O)c1ccccc1)B(O)O,,,5.13,5.13,< 4.40,5.38,5.22,10.1 µM,,pEC50 (West Nile virus [8]): 5.82; Activity (dengue virus type 2 [11]): 44%

# More lines, main results first:
inhibition (West Nile virus [1]),inhibition (dengue virus type 2 [2]),pIC50 [3],pIC50 [4],pIC50 [6],SMILES,pKi [3],pKi [4],CC50 at 48 h [7],Activity (West Nile virus [9]),other results
22%,9.8%,,,,N=C(N)NCCC[C@H](NC(=O)[C@@H](NC(=O)c1ccccc1)c1cccc(NC(=N)N)c1)C(N)=O,,,,,
33%,,3.68,,,N=C(N)NCCC[C@H](NC(=O)[C@H](Cc1cccc(NC(=N)N)c1)NC(=O)c1ccccc1)C(N)=O,,,,,
,,6.96,6.51,5.72,N=C(N)NCCC[C@H](NC(=O)[C@H](Cc1cccc(NC(=N)N)c1)NC(=O)c1ccccc1)B(O)O,7.04,6.52,≥ 100 µM,38%,pEC50 (dengue virus type 2 [5]): 4.32
9.6%,9.7%,,,,N=C(N)NCCC[C@H](NC(=O)c1ccccc1)C(N)=O,,,,,
18%,51.9%,,,< 4.30,N=C(N)NCCC[C@H](NC(=O)c1ccccc1)B(O)O,,,> 100 µM,19%,Activity (dengue virus type 2 [10]): 12%
,,6.59,6.85,5.92,N=C(N)NCCC[C@H](NC(=O)[C@@H](NC(=O)c1ccccc1)c1cccc(NC(=N)N)c1)B(O)O,6.66,6.92,> 100 µM,47%,Activity (dengue virus type 2 [10]): 24%
